The values that follow are results of earlier work, collected in patent EP1556366B1, “PROCESS FOR THE E[…] OLEFINS” (Degussa AG, priority 2002, dated 2004).

Read-outs that look alike come from different tables or passages of the source.

With `CN(C)C` [Me3N, trimethyl amine], the pkB was 4.26. Under “Table 2, nitrogen bases”, the pkB is recorded as 4.26.
For the compound `CN` [MeNH2, methyl amine], the pkB is on record as 3.36. Further, where the note is “Table 2, nitrogen bases”, the pkB is recorded as 3.36.
